Reference: patent US20070010671A1, “Novel quinazoline derivatives and methods of treatment related to the use thereof” (priority 2003, published 2007)

What follows are compounds tested against MCH receptor (Homo sapiens, UniProt Q99705) (assay: High throughput functional screening FLIPR/FDSS6000: inhibition of MCH-evoked intracellular Ca2+ changes). Conditions: class by percent of control at 10^-7 M or IC50.
Format: cell-based
Procedure, shortened: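 Antagonism is measured as inhibition of the intracellular calcium rise triggered by 50 nM MCH in cells bearing a constitutively active, non-endogenous form of the receptor. Cells are dye-loaded with Fluo4-AM and exposed to compound for 3 min at 37° C before agonist addition.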

Structure (SMILES) | class
CC(=O)c1ccc(NC(=S)NC[C@H]2CC[C@@H](Nc3nc(N(C)C)c4ccccc4n3)CC2)cc1 [compound 578] | 3 (Class 3: The value of percent of control at 10^−7 M was more than 60% or the value of IC50 was more than 200 nM.)
CN(C)c1nc(N[C@H]2CC[C@@H](CNC(=S)Nc3cc(C(F)(F)F)cc(C(F)(F)F)c3)CC2)nc2ccccc12 [compound 579] | 3 (Class 3: The value of percent of control at 10^−7 M was more than 60% or the value of IC50 was more than 200 nM.)
CN(C)c1nc(N[C@H]2CC[C@@H](CNC(=S)NCc3ccccc3)CC2)nc2ccccc12 [compound 580] | 3 (Class 3: The value of percent of control at 10^−7 M was more than 60% or the value of IC50 was more than 200 nM.)
CN(C)c1nc(N[C@H]2CC[C@@H](CNC(=S)Nc3cccc(Br)c3)CC2)nc2ccccc12 [compound 581] | 3 (Class 3: The value of percent of control at 10^−7 M was more than 60% or the value of IC50 was more than 200 nM.)
CN(C)c1nc(N[C@H]2CC[C@@H](CNC(=S)Nc3ccc(Br)cc3)CC2)nc2ccccc12 [compound 582] | 3 (Class 3: The value of percent of control at 10^−7 M was more than 60% or the value of IC50 was more than 200 nM.)
CCCCNC(=S)NC[C@H]1CC[C@@H](Nc2nc(N(C)C)c3ccccc3n2)CC1 [compound 583] | 3 (Class 3: The value of percent of control at 10^−7 M was more than 60% or the value of IC50 was more than 200 nM.)
CN(C)c1nc(N[C@H]2CC[C@@H](CNC(=S)Nc3ccc(C#N)cc3)CC2)nc2ccccc12 [compound 584] | 3 (Class 3: The value of percent of control at 10^−7 M was more than 60% or the value of IC50 was more than 200 nM.)
CN(C)c1nc(N[C@H]2CC[C@@H](CNC(=S)NC3CCCCC3)CC2)nc2ccccc12 [compound 585] | 3 (Class 3: The value of percent of control at 10^−7 M was more than 60% or the value of IC50 was more than 200 nM.)
CN(C)c1nc(N[C@H]2CC[C@@H](CNC(=S)NC3CCCC3)CC2)nc2ccccc12 [compound 586] | 3 (Class 3: The value of percent of control at 10^−7 M was more than 60% or the value of IC50 was more than 200 nM.)
CN(C)c1nc(N[C@H]2CC[C@@H](CNC(=S)Nc3cccc(Cl)c3)CC2)nc2ccccc12 [compound 587] | 3 (Class 3: The value of percent of control at 10^−7 M was more than 60% or the value of IC50 was more than 200 nM.)
CN(C)c1nc(N[C@H]2CC[C@@H](CNC(=S)Nc3ccc(Cl)cc3)CC2)nc2ccccc12 [compound 588] | 3 (Class 3: The value of percent of control at 10^−7 M was more than 60% or the value of IC50 was more than 200 nM.)
CN(C)c1nc(N[C@H]2CC[C@@H](CNC(=S)Nc3ccc(Cl)cc3Cl)CC2)nc2ccccc12 [compound 589] | 3 (Class 3: The value of percent of control at 10^−7 M was more than 60% or the value of IC50 was more than 200 nM.)
COc1ccc(NC(=S)NC[C@H]2CC[C@@H](Nc3nc(N(C)C)c4ccccc4n3)CC2)c(OC)c1 [compound 590] | 3 (Class 3: The value of percent of control at 10^−7 M was more than 60% or the value of IC50 was more than 200 nM.)
CN(C)c1nc(N[C@H]2CC[C@@H](CNC(=S)Nc3cc(F)ccc3F)CC2)nc2ccccc12 [compound 591] | 3 (Class 3: The value of percent of control at 10^−7 M was more than 60% or the value of IC50 was more than 200 nM.)
CN(C)c1nc(N[C@H]2CC[C@@H](CNC(=S)Nc3cc(Cl)ccc3Cl)CC2)nc2ccccc12 [compound 592] | 3 (Class 3: The value of percent of control at 10^−7 M was more than 60% or the value of IC50 was more than 200 nM.)
Cc1cccc(C)c1NC(=S)NC[C@H]1CC[C@@H](Nc2nc(N(C)C)c3ccccc3n2)CC1 [compound 593, N-[(cis-4-{[4-(dimethylamino)quinazolin-2-yl]amino}cyclohexyl)methyl]-N′-(2,6-dimethylphenyl)thiourea] | 2 (Class 2: The value of percent of control at 10^−7 M was from 40% to 60% or the value of IC50 was from 50 nM to 200 nM.)
CN(C)c1nc(N[C@H]2CC[C@@H](CNC(=S)Nc3ccc(Cl)c(Cl)c3)CC2)nc2ccccc12 [compound 594] | 3 (Class 3: The value of percent of control at 10^−7 M was more than 60% or the value of IC50 was more than 200 nM.)
CN(C)c1nc(N[C@H]2CC[C@@H](CNC(=S)Nc3c(Cl)cccc3Cl)CC2)nc2ccccc12 [compound 595] | 2 (Class 2: The value of percent of control at 10^−7 M was from 40% to 60% or the value of IC50 was from 50 nM to 200 nM.)
CCOc1ccc(NC(=S)NC[C@H]2CC[C@@H](Nc3nc(N(C)C)c4ccccc4n3)CC2)cc1 [compound 596] | 3 (Class 3: The value of percent of control at 10^−7 M was more than 60% or the value of IC50 was more than 200 nM.)
CCc1cccc(C(C)C)c1NC(=S)NC[C@H]1CC[C@@H](Nc2nc(N(C)C)c3ccccc3n2)CC1 [compound 597] | 2 (Class 2: The value of percent of control at 10^−7 M was from 40% to 60% or the value of IC50 was from 50 nM to 200 nM.)

Structure (SMILES) | class
CN(C)c1nc(N[C@H]2CC[C@@H](CNC(=S)NCc3ccco3)CC2)nc2ccccc12 [compound 598] | 3 (Class 3: The value of percent of control at 10^−7 M was more than 60% or the value of IC50 was more than 200 nM.)
CN(C)c1nc(N[C@H]2CC[C@@H](CNC(=S)Nc3ccc(F)cc3)CC2)nc2ccccc12 [compound 599] | 3 (Class 3: The value of percent of control at 10^−7 M was more than 60% or the value of IC50 was more than 200 nM.)
CCCCCCNC(=S)NC[C@H]1CC[C@@H](Nc2nc(N(C)C)c3ccccc3n2)CC1 [compound 600] | 3 (Class 3: The value of percent of control at 10^−7 M was more than 60% or the value of IC50 was more than 200 nM.)
CCC[C@H]1CC[C@H](c2ccc(NC(=S)NC[C@H]3CC[C@@H](Nc4nc(N(C)C)c5ccccc5n4)CC3)cc2)CC1 [compound 601] | 3 (Class 3: The value of percent of control at 10^−7 M was more than 60% or the value of IC50 was more than 200 nM.)
CC(C)CNC(=S)NC[C@H]1CC[C@@H](Nc2nc(N(C)C)c3ccccc3n2)CC1 [compound 602, N-[(cis-4-{[4-(dimethylamino)quinazolin-2-yl]amino}cyclohexyl)methyl]-N′-isobutylthiourea] | 2 (Class 2: The value of percent of control at 10^−7 M was from 40% to 60% or the value of IC50 was from 50 nM to 200 nM.)
COc1ccc(-c2ccccc2)cc1NC(=S)NC[C@H]1CC[C@@H](Nc2nc(N(C)C)c3ccccc3n2)CC1 [compound 603] | 3 (Class 3: The value of percent of control at 10^−7 M was more than 60% or the value of IC50 was more than 200 nM.)
CN(C)c1nc(N[C@H]2CC[C@@H](CNC(=S)NCc3ccc4c(c3)OCO4)CC2)nc2ccccc12 [compound 604] | 2 (Class 2: The value of percent of control at 10^−7 M was from 40% to 60% or the value of IC50 was from 50 nM to 200 nM.)
Cc1cccc(NC(=S)NC[C@H]2CC[C@@H](Nc3nc(N(C)C)c4ccccc4n3)CC2)c1 [compound 605] | 3 (Class 3: The value of percent of control at 10^−7 M was more than 60% or the value of IC50 was more than 200 nM.)
CSc1ccc(NC(=S)NC[C@H]2CC[C@@H](Nc3nc(N(C)C)c4ccccc4n3)CC2)cc1 [compound 606] | 3 (Class 3: The value of percent of control at 10^−7 M was more than 60% or the value of IC50 was more than 200 nM.)
COc1ccc(NC(=S)NC[C@H]2CC[C@@H](Nc3nc(N(C)C)c4ccccc4n3)CC2)cc1 [compound 607] | 3 (Class 3: The value of percent of control at 10^−7 M was more than 60% or the value of IC50 was more than 200 nM.)
C=C(C)CNC(=S)NC[C@H]1CC[C@@H](Nc2nc(N(C)C)c3ccccc3n2)CC1 [compound 608] | 3 (Class 3: The value of percent of control at 10^−7 M was more than 60% or the value of IC50 was more than 200 nM.)
COc1ccccc1NC(=S)NC[C@H]1CC[C@@H](Nc2nc(N(C)C)c3ccccc3n2)CC1 [compound 609] | 3 (Class 3: The value of percent of control at 10^−7 M was more than 60% or the value of IC50 was more than 200 nM.)
CNC(=S)NC[C@H]1CC[C@@H](Nc2nc(N(C)C)c3ccccc3n2)CC1 [compound 610] | 3 (Class 3: The value of percent of control at 10^−7 M was more than 60% or the value of IC50 was more than 200 nM.)
CN(C)c1nc(N[C@H]2CC[C@@H](CNC(=S)Nc3cccc4ccccc34)CC2)nc2ccccc12 [compound 611] | 3 (Class 3: The value of percent of control at 10^−7 M was more than 60% or the value of IC50 was more than 200 nM.)
CN(C)c1nc(N[C@H]2CC[C@@H](CNC(=S)Nc3cccc([N+](=O)[O-])c3)CC2)nc2ccccc12 [compound 612] | 3 (Class 3: The value of percent of control at 10^−7 M was more than 60% or the value of IC50 was more than 200 nM.)
CN(C)c1nc(N[C@H]2CC[C@@H](CNC(=S)Nc3ccc([N+](=O)[O-])cc3)CC2)nc2ccccc12 [compound 613, N-[(cis-4-{[4-(dimethylamino)quinazolin-2-yl]amino}cyclohexyl)methyl]-N′-(4-nitrophenyl)thiourea] | 2 (Class 2: The value of percent of control at 10^−7 M was from 40% to 60% or the value of IC50 was from 50 nM to 200 nM.)
CN(C)c1nc(N[C@H]2CC[C@@H](CNC(=S)NC(C)(C)CC(C)(C)C)CC2)nc2ccccc12 [compound 614] | 3 (Class 3: The value of percent of control at 10^−7 M was more than 60% or the value of IC50 was more than 200 nM.)
CN(C)c1nc(N[C@H]2CC[C@@H](CNC(=S)Nc3ccccc3)CC2)nc2ccccc12 [compound 615] | 3 (Class 3: The value of percent of control at 10^−7 M was more than 60% or the value of IC50 was more than 200 nM.)
CN(C)c1nc(N[C@H]2CC[C@@H](CNC(=S)Nc3c(F)c(F)c(F)c(F)c3F)CC2)nc2ccccc12 [compound 616, N-[(cis-4-{[4-(dimethylamino)quinazolin-2-yl]amino}cyclohexyl)methyl]-N′-(pentafluorophenyl)thiourea] | 2 (Class 2: The value of percent of control at 10^−7 M was from 40% to 60% or the value of IC50 was from 50 nM to 200 nM.)
